This is an account of results in US20240207200A1, “USE OF PROPANDIOL MONONITRATE AND LIMONENE FOR REDUCING THE FORMATION OF METHANE EMANATING AND FOR IMPROVING THE DIGESTIBILITY” (DSM IP Assets B.V., priority 2021, published 2024).

The assay has as its system rumen liquor. Briefly: In vitro test for methane production, modified Hohenheim Forage value Test (HFT). Type of assay: cell-based. The note with it: TMR feed, 8 hours at 39° C., average of four to eight experiments. As to the method:
In vitro test for methane production: A modified version of the “Hohenheim Forage value Test (HFT)” was used for testing the effect of specific compounds on the rumen functions mimicked by this in-vitro system.
Principle: Feed is gadded into a syringe with a composition of rumen liquor and an appropriate mixture of buffers. The solution is incubated at 39° C. After 8 hours the quantity (and composition) of gas phase produced is measured and put into a formula for conversion.
Sample weighing: The feed stuff (i.e. TMR (44% concentrate, 6% hay, 37% maize silage and 13% grass silage) is sieved to 1 mm and weighed exactly into 64 syringes. 4 of these syringes are the substrate controls, which display the gas production without the effect of the tested compounds. 4 other syringes are positive control (3-NOP, […]). When needed, 4 syringes contain a carrier control (if the test compounds need a carrier). The remaining syringes contain the test substances, by groups of 4 syringes, in the amounts as indicated in table 1.
• The components are mixed in a Woulff bottle in following order: • 711 ml water • 0.18 ml trace element solution • 355.5 ml buffer solution • 355.5 ml mass element solution • The completed solution is warmed up to 39° C. followed by the addition of 1.83 ml sodium salt solution and the addition of reduction solution at 36° C. • The rumen liquor is added, when the indicator turns colourless.
Extraction of the rumen liquor: 750 ml of rumen liquor are added to approximately 1,400 ml of medium solution under continued agitation and CO2-gassing.
Filling the syringes, incubation and determining gas volumes and VFA values: The diluted rumen fluid (24 ml) is added to the glass syringe. The syringes are then incubated for 8 hours at 39° C. under gentle agitation. After 8 hours, the volume of gas produced is measured, and the percentage of methane in the gas phase is determined by gas chromatography.
The food fermented was artificial TMR (44% concentrate, 6% hay, 37% maize silage and 13% grass silage). […]

Consider `C=C(C)C1CC=C(C)CC1` [DL, D-Limonene], for which, under “DL 100 μM”, the “Total methane change [% vs. control], found” value is recorded as −1 % vs. control.

As to `O=[N+]([O-])OCCCO` [PDMN, Propanediol mononitrate], the “Total methane change [% vs. control], found” value was −27 % vs. control (PDMN 5 μM) and −98 % vs. control (PDMN 10 μM).
